Laboratory results taken from paper PMC11191317, “PNSC928, a plant-derived compound, specifically disrupts CtBP2-p300 interaction and reduces inflammation in mice with acute respiratory distress syndrome” (Biology Direct, 2024).

Assays:
[1] = molecular target: T1, CtBP2-p300^BRD interaction (Mus musculus, UniProt B2RWS6+P56546); test: In vitro pulldown assay with His-CtBP2 and GST-p300^BRD; format: binding; settings: PNSC928 0, 11.8, 23.6, and 47.2 µM; 80 nM GST-p300^BRD and 40 nM His-CtBP2
T1 construct: R1 (1-1000 amino acids, aa), R2 (1001–1201 aa), R3 (1202–1810 aa); made in house; host or cells: E. coli BL21
T1 sequence (B2RWS6 1001-1201 limits assumed): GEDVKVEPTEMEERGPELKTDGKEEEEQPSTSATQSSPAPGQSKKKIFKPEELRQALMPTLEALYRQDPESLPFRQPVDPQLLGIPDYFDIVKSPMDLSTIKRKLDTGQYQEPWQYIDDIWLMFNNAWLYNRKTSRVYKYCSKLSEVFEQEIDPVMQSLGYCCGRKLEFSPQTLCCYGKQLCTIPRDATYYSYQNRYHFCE
T1 sequence (P56546 whole entry, the tested form may be a part): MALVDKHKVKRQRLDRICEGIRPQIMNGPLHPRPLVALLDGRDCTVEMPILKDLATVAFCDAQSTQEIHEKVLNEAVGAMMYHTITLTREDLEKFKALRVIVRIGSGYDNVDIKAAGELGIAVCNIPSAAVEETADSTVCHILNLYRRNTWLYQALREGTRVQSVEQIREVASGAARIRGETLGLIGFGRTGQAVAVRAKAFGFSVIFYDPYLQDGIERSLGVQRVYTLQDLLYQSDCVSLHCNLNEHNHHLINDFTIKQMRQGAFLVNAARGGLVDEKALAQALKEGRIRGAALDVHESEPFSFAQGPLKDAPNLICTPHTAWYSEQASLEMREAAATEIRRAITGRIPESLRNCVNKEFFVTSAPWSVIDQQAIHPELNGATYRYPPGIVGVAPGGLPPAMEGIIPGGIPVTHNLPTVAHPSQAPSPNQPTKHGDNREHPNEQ
Procedure: Fig. 4 Identification of PNSC928 and determination of its in vitro and in vivo effects on disruption of CtBP2-p300 interaction. (A) A schematic representation illustrating four regions of the p300 amino acid sequence. (B) Co-IP results. Different combinations of plasmids were cotransfected into MPAEpiC cells. After a 48-hour incubation, cells were lysed and used for immunoprecipitation with anti-Flag agarose. The input and output proteins were probed with anti-Flag and anti-Myc antibodies. n = 3. (C) A schematic representation illustrating the in vitro AlphaScreen setup. (D) AlphaScreen signals for different concentrations of His-CtBP2 and GST-p300^BRD. (E) Chemical structure of PNSC928. (F) IC50 of PNSC928 disrupting CtBP2-p300^BRD interaction. (G and H) In vitro pulldown assay in a reaction consisting of His-CtBP2, GST-p300^BRD, and incremental concentrations of PNSC928 (0, 11.8, 23.6, and 47.2 µM). (G) Pulldown with Ni-NTA beads; (H) Pulldown with GST beads.
To probe this interaction, we established an AlphaScreen system that utilized GST-p300^BRD and His-CtBP2, binding to donor and acceptor beads, respectively (Fig. 4C). […] In vitro assays assessed the effects of PNSC928 on the CtBP2-p300^BRD interaction. […] Furthermore, we assessed the impact of combined LPS and PNSC928 treatment on the expression of key molecules in the NF-κB signaling pathway.

RAW264.7 cells = test: RT-qPCR of CtBP2/p300/NF-κB target genes in LPS-treated RAW264.7 cells (PNSC928); format: cell-based, mouse; settings: LPS + PNSC928 23.6 and 47.2 µM, 6 h
Procedure: For LPS treatment, different knockdown (KD) cell lines—Control^KD, CtBP2^KD, p300^KD, and p65^KD, all derived from MPAEpiC—were seeded in 12-well plates and cultured at 37 °C until reaching 80% confluence. The cells were then treated with 200 ng/mL of LPS for 6 h, washed three times with PBS, and subjected to the required experiments. For experiments involving inhibitors of CtBP2, p300, and NF-κB, as well as the compound PNSC928, MPAEpiC, RAW264.7, FL83B, TKPTS, and HL-1 cells were seeded in 12-well plates and cultured at 37 °C to reach 80% confluence. […]
RNA was isolated from both cultured cells and mouse lung tissues utilizing the TRIzol Reagent (Invitrogen; Shanghai, China; #15,596,018) in adherence to the manufacturer’s protocol. […] Gene expression quantification was carried out using the SYBR GreenER qPCR SuperMix Universal (Thermo Fisher; #1176202K) in combination with the specific primers delineated in Table S3. […]
Fig. 5 Determination of PNSC928 cytotoxicity and evaluation of PNSC928 effects on the expression levels of CtBP2/p300/NF-κB target genes. […] Cell viability was assessed every 24 h for 5 days. […] Subsequently, RNA isolation and RT-qPCR analysis were performed to quantify mRNA levels of various genes. […]

## CC(=CCCC1=CCC(C2COC(=O)C2)OC1O)CCC1=C(C)CCCC1(C)C (stereo not drawn) [PNSC928]
[1]
  Effect on CtBP2-p300^BRD interaction in pulldown assay: disrupts the CtBP2-p300^BRD interaction in a dose-dependent manner
RAW264.7 cells
  Expression levels of CDH1, CDKN1A, CDKN2A, CHRD, PAX6, BAX, NOD2, CCL2, CXCL10, CXCL12, MMP1, STAT1, MIP2, CCR5, GM-CSF, VEGF, COX2, and iNOS: did not alter the expression levels
  LPS-induced IL-1B, IL-6, IL-15, IL-18, TNFA, and IFNG expressions: dose-dependent reversal
